# Test results: patent US20240150362A1, “Substituted Pyrrolotriazines” (Molecure S.A., priority 2022, published 2024)
# Structures can show the parent of a compound that is named as a salt.
# Target: T1, full-length USP7 (Homo sapiens, UniProt Q93009)
# T1 construct: A 45 μl reaction volume containing full-length USP7 (0.5-1.0 nM)
# Assay: Enzymatic assay to determine % inhibition of USP7 activity at 1 μM test compound (Ubiquitin-Rhodamine 110 cleavage)
# Assay type: biochemical
# Details: 1 μM of the test compound; given where IC50 has not been determined yet; mean of two repetitions
# Method: Enzymatic Assay to Determine % Value of Inhibition […] Activity at 1 μM […]
# A 45 μl reaction volume containing full-length USP7 (0.5-1.0 nM) in 50 mM HEPES pH 7.5, 150 mM NaCl, 2 mM DTT, 1 mg/ml BSA and 0.05% Tween20 (DUB assay buffer) was assembled in wells of 96 well half area black flat bottom plates. All test compounds were first dissolved to 30 mM stocks in DMSO and subsequently introduced to enzyme 15 min after USP7 incubation with DTT at room temperature. The final concentration of tested compounds was 1 μM. The enzymatic reaction was started by adding 0.5 μM Ubiquitin-Rhodamine 110 (final concentration) and allowed to proceed for 30-60 min at 25° C., 250 RPM shaking before Rhodamine fluorescence (485 nm excitation/535 nm emission) was measured using Tecan Spark M10 plate reader. Percentage of inhibition at 1 μM was determined by the mean of two repetitions for these concentrations using Microsoft Excel software.
# T1 sequence (Q93009 whole entry): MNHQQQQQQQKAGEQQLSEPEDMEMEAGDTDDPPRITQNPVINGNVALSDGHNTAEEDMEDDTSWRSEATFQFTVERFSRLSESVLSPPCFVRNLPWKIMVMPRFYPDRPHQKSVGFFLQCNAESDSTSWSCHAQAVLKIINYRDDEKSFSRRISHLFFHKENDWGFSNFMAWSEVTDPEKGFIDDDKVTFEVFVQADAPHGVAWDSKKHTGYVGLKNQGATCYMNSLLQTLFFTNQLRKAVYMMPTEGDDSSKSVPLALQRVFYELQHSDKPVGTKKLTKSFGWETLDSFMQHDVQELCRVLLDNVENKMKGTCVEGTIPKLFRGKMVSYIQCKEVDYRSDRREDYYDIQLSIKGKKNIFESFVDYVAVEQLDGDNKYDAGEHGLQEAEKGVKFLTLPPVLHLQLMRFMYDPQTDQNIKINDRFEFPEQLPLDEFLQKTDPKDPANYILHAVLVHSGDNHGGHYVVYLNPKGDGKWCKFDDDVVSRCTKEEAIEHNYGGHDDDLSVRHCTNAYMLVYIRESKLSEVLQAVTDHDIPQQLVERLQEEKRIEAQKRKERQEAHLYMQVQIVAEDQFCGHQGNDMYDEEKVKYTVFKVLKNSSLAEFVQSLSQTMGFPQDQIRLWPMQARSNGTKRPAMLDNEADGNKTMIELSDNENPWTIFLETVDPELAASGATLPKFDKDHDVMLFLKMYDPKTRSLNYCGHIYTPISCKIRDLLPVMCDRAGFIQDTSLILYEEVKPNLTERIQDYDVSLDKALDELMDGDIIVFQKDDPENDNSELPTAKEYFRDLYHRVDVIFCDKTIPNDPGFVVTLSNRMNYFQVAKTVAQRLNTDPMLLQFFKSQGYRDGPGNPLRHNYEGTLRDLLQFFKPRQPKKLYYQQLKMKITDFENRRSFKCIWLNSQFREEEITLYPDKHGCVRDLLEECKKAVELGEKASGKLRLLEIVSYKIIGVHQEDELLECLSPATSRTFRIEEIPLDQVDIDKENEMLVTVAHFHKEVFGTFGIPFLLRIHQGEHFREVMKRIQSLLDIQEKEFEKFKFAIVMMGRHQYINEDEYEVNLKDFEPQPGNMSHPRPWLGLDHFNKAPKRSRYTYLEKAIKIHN
row,Compound,inhibition at 1 µM
1,"Cc1cc(Cl)cc(-c2ncnn3cc(CN4C(=O)C5C(C4=O)C5(C)C)cc23)c1C1=CCNCC1 (stereo not shown) [Example 84, 3-((4-(5-chloro-3-methyl-2-(1,2,3,6-tetrahydropyridin-4-yl)phenyl)pyrrolo[2,1-f][1,2,4]triazin-6-yl)methyl)-6,6-dimethyl-3-azabicyclo[3.1.0]hexane-2,4-dione hydrochloride]",< 20%
2,"Cc1cc(Cl)cc(-c2ncnn3cc(Cn4c(=O)ccn(C)c4=O)cc23)c1C1=CCNCC1 [Example 88, 3-((4-(5-chloro-3-methyl-2-(1,2,3,6-tetrahydropyridin-4-yl)phenyl)pyrrolo[2,1-f][1,2,4]triazin-6-yl)methyl)-1-methylpyrimidine-2,4(1H,3H)-dione hydrochloride]",< 20%
3,"CC1(C)C2C(=O)N(Cc3cc4c(-c5cc(Cl)ccc5N5C[C@H]6CCN[C@H]6C5)ncnn4c3)C(=O)C21 (stereo partly drawn) [Example 90, 3-((4-(5-chloro-2-((3aR,6aR)-hexahydropyrrolo[3,4-b]pyrrol-5(1H)-yl)phenyl)pyrrolo[2,1-f][1,2,4]triazin-6-yl)methyl)-6,6-dimethyl-3-azabicyclo[3.1.0]hexane-2,4-dione hydrochloride]",50 to 70%
4,"CC1(C)C2C(=O)N(Cc3cc4c(-c5cc(Cl)ccc5N5CCC6(CCCN6)C5)ncnn4c3)C(=O)C21 (stereo not shown) [Example 91, 3-((4-(5-chloro-2-(1,7-diazaspiro[4.4]nonan-7-yl)phenyl)pyrrolo[2,1-f][1,2,4]triazin-6-yl)methyl)-6,6-dimethyl-3-azabicyclo[3.1.0]hexane-2,4-dione hydrochloride]",20 to 49%
5,"CC1(C)C2C(=O)N(Cc3cc4c(-c5cc(Cl)cc6c5N(C5CCNC5)CC5CC65)ncnn4c3)C(=O)C21 (stereo not shown) [Example 92, 3-((4-(6-chloro-3-(pyrrolidin-3-yl)-1a,2,3,7b-tetrahydro-1H-cyclopropa[c]quinolin-4-yl)pyrrolo[2,1-f][1,2,4]triazin-6-yl)methyl)-6,6-dimethyl-3-azabicyclo[3.1.0]hexane-2,4-dione hydrochloride]",50 to 70%

# The remaining lines, values ahead:
row,inhibition at 1 µM,Compound
1,< 20%,"CC1(C)C2C(=O)N(Cc3cc4c(-c5cc(Cl)ccc5N5CCNCC5)ncnn4c3)C(=O)C21 (stereo not shown) [Example 85, 3-((4-(5-chloro-2-(piperazin-1-yl)phenyl)pyrrolo[2,1-f][1,2,4]triazin-6-yl)methyl)-6,6-dimethyl-3-azabicyclo[3.1.0]hexane-2,4-dione hydrochloride]"
2,20 to 49%,"CC1(C)C2C(=O)N(Cc3cc4c(-c5cc(Cl)ccc5N5CC[C@H](N)C5)ncnn4c3)C(=O)C21 (stereo partly drawn) [Example 86, 3-((4-(2-((S)-3-aminopyrrolidin-1-yl)-5-chlorophenyl)pyrrolo[2,1-f][1,2,4]triazin-6-yl)methyl)-6,6-dimethyl-3-azabicyclo[3.1.0]hexane-2,4-dione hydrochloride]"
3,20 to 49%,"CC1(C)C2C(=O)N(Cc3cc4c(-c5cc(Cl)ccc5N5CC[C@@H](N)C5)ncnn4c3)C(=O)C21 (stereo partly drawn) [Example 87, 3-((4-(2-((R)-3-aminopyrrolidin-1-yl)-5-chlorophenyl)pyrrolo[2,1-f][1,2,4]triazin-6-yl)methyl)-6,6-dimethyl-3-azabicyclo[3.1.0]hexane-2,4-dione hydrochloride]"
4,< 20%,"CC1(C)C2C(=O)N(Cc3cc4c(-c5cc(Cl)ccc5N5C[C@@H]6CCN[C@@H]6C5)ncnn4c3)C(=O)C21 (stereo partly drawn) [Example 96, 3-((4-(5-chloro-2-((3aS,6aS)-hexahydropyrrolo[3,4-b]pyrrol-5(1H)-yl)phenyl)pyrrolo[2,1-f][1,2,4]triazin-6-yl)methyl)-6,6-dimethyl-3-azabicyclo[3.1.0]hexane-2,4-dione hydrochloride]"
5,< 20%,"CC1(C)C2C(=O)N(Cc3cc4c(-c5cc(Cl)ccc5N5CC6CNCC6C5)ncnn4c3)C(=O)C21 (stereo not shown) [Example 97, 3-((4-(5-chloro-2-(hexahydropyrrolo[3,4-c]pyrrol-2(1H)-yl)phenyl)pyrrolo[2,1-f][1,2,4]triazin-6-yl)methyl)-6,6-dimethyl-3-azabicyclo[3.1.0]hexane-2,4-dione hydrochloride]"
